The values that follow come from US9133140B2, “Cycloalkylamne derivatives” (Daiichi Sankyo Company, Limited, priority 2008, dated 2015).

For one assay, the target named is T1, human CaSR (Homo sapiens, UniProt P41180).
T1 construct: TT cells are cell lines that express human CaSR; endogenous in cells; host or cells: TT cells (human medullary thyroid carcinoma cell line)
T1 sequence (P41180 20-1078): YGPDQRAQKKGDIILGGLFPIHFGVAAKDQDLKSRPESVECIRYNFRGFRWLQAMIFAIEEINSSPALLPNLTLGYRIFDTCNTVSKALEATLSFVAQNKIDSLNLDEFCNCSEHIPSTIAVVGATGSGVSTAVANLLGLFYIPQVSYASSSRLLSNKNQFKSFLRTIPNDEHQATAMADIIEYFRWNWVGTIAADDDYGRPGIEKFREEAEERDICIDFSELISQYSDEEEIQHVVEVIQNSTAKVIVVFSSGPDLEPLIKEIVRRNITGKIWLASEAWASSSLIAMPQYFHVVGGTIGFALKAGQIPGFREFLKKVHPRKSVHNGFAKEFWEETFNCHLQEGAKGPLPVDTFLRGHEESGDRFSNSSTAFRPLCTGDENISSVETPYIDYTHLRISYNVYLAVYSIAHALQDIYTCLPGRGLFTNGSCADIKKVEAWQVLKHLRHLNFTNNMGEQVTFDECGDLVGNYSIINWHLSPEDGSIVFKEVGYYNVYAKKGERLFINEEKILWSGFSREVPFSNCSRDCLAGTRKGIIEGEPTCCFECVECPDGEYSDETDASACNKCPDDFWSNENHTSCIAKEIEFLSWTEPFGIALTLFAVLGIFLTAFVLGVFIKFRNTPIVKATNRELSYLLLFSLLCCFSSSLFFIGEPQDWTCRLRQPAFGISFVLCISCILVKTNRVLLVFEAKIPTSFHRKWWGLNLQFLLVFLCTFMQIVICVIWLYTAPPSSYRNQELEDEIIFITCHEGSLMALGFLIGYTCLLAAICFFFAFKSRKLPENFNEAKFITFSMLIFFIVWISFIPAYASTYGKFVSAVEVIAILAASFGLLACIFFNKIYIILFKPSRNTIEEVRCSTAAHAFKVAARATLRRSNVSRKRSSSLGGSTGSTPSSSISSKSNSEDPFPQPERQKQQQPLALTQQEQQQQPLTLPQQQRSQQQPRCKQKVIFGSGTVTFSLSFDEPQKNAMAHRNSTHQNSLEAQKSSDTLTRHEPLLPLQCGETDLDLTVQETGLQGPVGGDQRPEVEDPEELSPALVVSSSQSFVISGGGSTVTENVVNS
In words: Human CaSR activity measurement test (intracellular calcium in TT cells). Type of assay: cell-based. The following applies: [EC50 of test compound]/[EC50 of Compound A], intracellular calcium fluorescence. The method, then:
It is reported that human medullary thyroid carcinoma cell lines TT cells are cell lines that express human CaSR, and when CaSR is activated by extracellular calcium ions or the like, intracellular calcium ion concentration increases (Endocrinology 137: 3842-3848, 1996). Accordingly, an activating action of the test compounds with respect to human CaSR was evaluated by using the change in intracellular calcium concentration of TT cells as an indicator. TT cells were inoculated onto a black well/clear bottom 96 well plate (poly-D-lysine coat: manufactured by BD biosciences), and were cultured for approximately 24 hours in a F-12 Nutrient Mixture (Kaighn's modification) culture media containing 10% calf serum and 0.5% antibiotic antimycotic. […] Then, the plate was allowed to stand for 1 hour at 37° C. Subsequently, the above-mentioned plate was placed onto FlexStation (manufactured by Molecular Device) or FlexStation 3 (manufactured by Molecular Device), and fluorescence intensity before and after treatment with the test compound dissolved in a buffer for measurement (126 mM NaCl, 4 mM KCl, 1 mM MgCl2, 20 mM HEPES (pH 7.4), 5.6 mM glucose, 2 mM CaCl2) was measured. […] Nagano, Pharmacol. […] WO 1996/12697) as a comparative compound, by conducting a similar procedure. From the following equation, the human CaSR activity of each of the test compounds was calculated as the relative activity with respect to Compound A. Relative activity with respect to Compound A=[EC50 of test compound]/[EC50 of Compound A]

Assay [1] deals with calcium ion concentration in the blood. The experiment in a line: Measurement test for concentration of parathyroid hormone and calcium ion in rat blood. The class given is in vivo. The following applies: read-out: reduction of calcium concentration in the blood. The method, then: Three male SD rats (manufactured by Japan SLC, Inc.) were orally administered with the test compound, and effects on the concentration of parathyroid hormone (PTH) in the blood and concentration of the calcium ion in the blood were studied.
The test compound was administered by dissolving or suspending it in a 0.5% methyl cellulose 400 (MC) solution or 0.5% MC solution containing 10% of ethanol. (In addition, Compound A used in Test Example 1 was administered as a MC suspension by dosage of 30 mg/kg, and was studied as a comparative example.) Blood was collected from the jugular vein under anesthesia with halothane or isoflurane, before administration of the test compound, and 2, 4, 6 or 8 and 24 hours after administration. Calcium ion concentration in the blood was measured using cartridge EG7+(manufactured by Fuso Chemical Co., Ltd.) and i-STAT 300F (manufactured by Fuso Chemical Co., Ltd.). In addition, plasma intact PTH concentration was measured using Rat intact PTH ELISA kit (manufactured by Immutopics).
The transition of calcium ion concentration in the blood over time from before administration to 24 hours after administration of each of the test compounds was plotted, and the decrease in calcium ion concentration in the blood from the value before administration was calculated as an area value.

The mark [2] stands for this setting: male SD rats, oral, 10 mg/kg, 4 hours after administration.
The mark [3] stands for this setting: male SD rats, oral, 4 hours after administration.

SMILES strings stand for the structures. Structures can show the parent of a compound that is named as a salt. Where two headings read alike, the source gives them in different places.

For `C[C@@H](NC1CC[C@@H](c2ccc(OCC(=O)O)cc2)C1)c1cccc2cc(F)ccc12` (stereo partly drawn) [Example 21, {4-[(1R)-3-{[(1R)-1-(6-Fluoronaphthalen-1-yl)ethyl]amino}cyclopentyl]phenoxy}acetic acid], the “Relative activity with respect to Compound A” value (“Relative activity” below) on human CaSR was determined as 0.38. In addition, the inhibition in vivo at 10 mg/kg in assay [1] (setting [2]) is no less than 30%.
As to `C[C@@H](N[C@H]1CC[C@@H](c2ccc(OC(C)(C)C(=O)O)cc2)C1)c1ccc(F)c2ccccc12` [Example 31, 2-{4-[(1R,3S)-3-{[(1R)-1-(4-Fluoronaphthalen-1-yl)ethyl]amino}cyclopentyl]phenoxy}-2-methylpropanoic acid hydrochloride], at human CaSR, the “Relative activity” value is reported as 0.36. The inhibition in vivo at 0.3 mg/kg in assay [1] (setting [3]) was no less than 20%. Further, in assay [1] (setting [2]), the inhibition in vivo at 10 mg/kg is no less than 30%.
As to `C[C@@H](N[C@H]1CC[C@@H](c2ccc(NCC(=O)O)cc2)C1)c1cccc2ccccc12` [Example 33, N-{4-[(1R,3S)-3-{[(1R)-1-(Naphthalen-1-yl)ethyl]amino}cyclopentyl]phenyl}glycine 0.4 hydrochloride], on human CaSR, the “Relative activity” value worked out at 0.23. The inhibition in vivo at 10 mg/kg in assay [1] (po, 4 h) was no less than 30%.
In the case of `C[C@@H](N[C@H]1CC[C@@H](c2ccc(OCC(=O)O)cc2)C1)c1cccc2ccccc12` [Example 10, {4-[(1R,3S)-3-{[(1R)-1-(Naphthalen-1-yl)ethyl]amino}cyclopentyl]phenoxy}acetic acid hydrochloride], the “Relative activity” value on human CaSR is given as 0.28. The inhibition in vivo at 10 mg/kg in assay [1] (setting [2]) was no less than 30%.
Turning to `C[C@@H](N[C@H]1CC[C@@H](c2ccc(CC(=O)O)cc2)C1)c1ccc(F)c2ccccc12` [Example 25, {4-[(1R,3S)-3-{[(1R)-1-(4-Fluoronaphthalen-1-yl)ethyl]amino}cyclopentyl]phenyl}acetic acid hydrochloride], the “Relative activity” value at human CaSR is 0.34. Besides, in assay [1] (setting [3]), the inhibition in vivo at 0.3 mg/kg is no less than 20%. Further, the inhibition in vivo at 10 mg/kg in assay [1] (setting [2]) was no less than 30%.
With `C[C@@H](N[C@H]1CC[C@@H](c2ccc(-c3nn[nH]n3)cc2)C1)c1cccc2ccccc12` [Example 3, (1S,3R)-N-[(1R)-1-(Naphthalen-1-yl)ethyl]-3-[4-(2H-tetrazol-5-yl)phenyl]cyclopentanamine hydrochloride], at human CaSR, the “Relative activity” value was 0.18. The inhibition in vivo at 10 mg/kg in assay [1] (setting [2]) is no less than 30%.
Regarding `C[C@@H](N[C@H]1CC[C@H](c2ccc(CCC(=O)O)cc2)C1)c1ccc(F)c2ccccc12` [Example 30, 3-{4-[(1S,3S)-3-{[(1R)-1-(4-Fluoronaphthalen-1-yl)ethyl]amino}cyclopentyl]phenyl}propanoic acid hydrochloride], the “Relative activity” value on human CaSR worked out at 0.31. In addition, the inhibition in vivo at 0.3 mg/kg in assay [1] (setting [3]) was no less than 20%.
On to `C[C@@H](N[C@H]1CC[C@@H](c2ccc(SCC(=O)O)cc2)C1)c1cccc2ccccc12` [Example 36, ({4-[(1R,3S)-3-{[(1R)-1-(Naphthalen-1-yl)ethyl]amino}cyclopentyl]phenyl}thio)acetic acid hydrochloride], for which the “Relative activity” value on human CaSR amounted to 0.15. In addition, the inhibition in vivo at 10 mg/kg in assay [1] (setting [2]) was no less than 30%.
Consider `C[C@@H](N[C@H]1CC[C@@H](c2cccc(CC(=O)O)c2)C1)c1ccc(F)c2ccccc12` [Example 24, {3-[(1R,3S)-3-{[(1R)-1-(4-Fluoronaphthalen-1-yl)ethyl]amino}cyclopentyl]phenyl}acetic acid hydrochloride], for which the “Relative activity” value on human CaSR worked out at 0.30. In assay [1] (setting [3]), the inhibition in vivo at 0.3 mg/kg is no less than 20%. Further, the inhibition in vivo at 10 mg/kg in assay [1] (setting [2]) was no less than 30%.
For the molecule `C[C@@H](N[C@H]1CC[C@@H](c2ccc(NCCC(=O)O)cc2)C1)c1cccc2ccccc12` [Example 34, N-{4-[(1R,3S)-3-{[(1R)-1-(Naphthalen-1-yl)ethyl]amino}cyclopentyl]phenyl}-β-alanine 0.5 hydrochloride], on human CaSR, the “Relative activity” value is reported as 0.26. Besides, the inhibition in vivo at 10 mg/kg in assay [1] (po, 4 h) was no less than 30%.
On to `C[C@@H](N[C@H]1CC[C@@H](c2ccc(OC(C)(C)C(=O)O)c(F)c2)C1)c1cccc2ccccc12` [Example 15, 2-{2-Fluoro-4-[(1R,3S)-3-{[(1R)-1-(naphthalen-1-yl)ethyl]amino}cyclopentyl]phenoxy}-2-methylpropanoic acid hydrochloride], for which the “Relative activity” value on human CaSR turned out to be 0.38. Also, in assay [1] (setting [2]), the inhibition in vivo at 10 mg/kg is no less than 30%.
For `C[C@@H](N[C@H]1CC[C@@H](c2ccc(CC(=O)O)cc2)C1)c1cccc2ccccc12` [Example 8, {4-[(1R,3S)-3-{[(1R)-1-(Naphthalen-1-yl)ethyl]amino}cyclopentyl]phenyl}acetic acid hydrochloride], at human CaSR, the “Relative activity” value was determined as 0.61. Moreover, in assay [1] (setting [2]), the inhibition in vivo at 10 mg/kg was no less than 30%.
In the case of `C[C@@H](N[C@H]1CC[C@@H](c2ccc(CCC(=O)O)cc2)C1)c1ccc(F)c2ccccc12` [Example 27, 3-{4-[(1R,3S)-3-{[(1R)-1-(4-Fluoronaphthalen-1-yl)ethyl]amino}cyclopentyl]phenyl}propanoic acid hydrochloride], the “Relative activity” value at human CaSR is 0.59. Besides, the inhibition in vivo at 0.3 mg/kg in assay [1] (setting [3]) is no less than 20%.
Turning to `C[C@@H](N[C@H]1CC[C@@H](c2cccc(CC(=O)O)c2)C1)c1cccc2ccccc12` [Example 7, {3-[(1R,3S)-3-{[(1R)-1-(Naphthalen-1-yl)ethyl]amino}cyclopentyl]phenyl}acetic acid hydrochloride], at human CaSR, the “Relative activity” value was 0.26. In assay [1] (setting [2]), the inhibition in vivo at 10 mg/kg was no less than 30%.
